Assay results as given in article PMC4264767, “Discovery of Two β-1,2-Mannoside Phosphorylases Showing Different Chain-Length Specificities from Thermoanaerobacter sp. X-514” (PLoS ONE, 2014).

Target: T1, Teth514_1788 (Thermoanaerobacter sp. X514, UniProt B0K2C2)
T1 construct: full-length, no signal peptide predicted, C-terminal His6-tag (pET24a) kept, E. coli Rosetta 2 (DE3); theoretical mass 33,997; homodimer
T1 sequence (B0K2C2 1-296): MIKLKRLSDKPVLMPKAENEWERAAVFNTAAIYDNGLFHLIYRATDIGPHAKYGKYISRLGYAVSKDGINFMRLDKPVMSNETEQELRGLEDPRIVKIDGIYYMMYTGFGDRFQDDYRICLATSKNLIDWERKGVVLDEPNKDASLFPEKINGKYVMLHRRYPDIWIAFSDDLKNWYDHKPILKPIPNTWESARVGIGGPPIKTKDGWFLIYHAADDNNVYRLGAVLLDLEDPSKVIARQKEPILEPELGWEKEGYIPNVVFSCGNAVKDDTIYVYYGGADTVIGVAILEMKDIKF
Test: colorimetric α-Man1P release, sequential Bi Bi fit
Format: biochemical
Details: kinetic constant K iA of substrate A, no inhibition constant; phosphorolysis; Pi 0.10-2.0 mM; 40 mM MES-NaOH pH 6.0; 30°C

`OC[C@H]1O[C@@H](O[C@@H]2[C@H](O[C@@H]3[C@H](O[C@@H]4C(O)O[C@H](CO)[C@@H](O)[C@@H]4O)O[C@H](CO)[C@@H](O)[C@@H]3O)O[C@H](CO)[C@@H](O)[C@@H]2O)[C@@H](O)[C@@H](O)[C@@H]1O` (stereo partly drawn) [product 3, β-D-mannopyranosyl-(1→2)-β-D-mannopyranosyl-(1→2)-β-D-mannopyranosyl-(1→2)-D-mannose] and `OC[C@H]1O[C@@H](O[C@@H]2[C@H](O[C@@H]3C(O)O[C@H](CO)[C@@H](O)[C@@H]3O)O[C@H](CO)[C@@H](O)[C@@H]2O)[C@@H](O)[C@@H](O)[C@@H]1O` (stereo partly drawn) [product 2, β-D-mannopyranosyl-(1→2)-β-D-mannopyranosyl-(1→2)-D-mannose] are within error of each other in “K iA” value: 1.9 ± 0.6 mM for the first, 2.1 ± 0.5 mM for the second.

For `OC[C@H]1O[C@@H](O[C@@H]2C(O)O[C@H](CO)[C@@H](O)[C@@H]2O)[C@@H](O)[C@@H](O)[C@@H]1O` (stereo partly drawn) [product 1, β-D-mannopyranosyl-(1→2)-D-mannose], the “K iA” value was 0.63 ± 0.2 mM.
